In PMC7660689, “Catechol-Type Flavonoids from the Branches of Elaeagnus glabra f. oxyphylla Exert Antioxidant Activity and an Inhibitory Effect on Amyloid-β Aggregation” (Molecules, 2020):

Assays:
[1] = ABTS radical scavenging assay; conditions: for ABTS radical scavenging activity: compounds at 100 μM; for Concentration at which ABTS radical scavenging activity reached 100% / IC50: isolated compounds; for IC50: 1.5625-100 µM
Description: ABTS and DPPH radical scavenging assays were performed with reference to the modified method described in previously published reports to examine the antioxidant activities. […] Subsequently, the reactant was diluted 25-fold to adjust its absorbance at 734 nm to 0.7 by using a spectrophotometer (Benchmark Plus, Bio-Rad, Hercules, CA). […] The absorbance was measured at 517 nm. Ascorbic acid was used as a positive control for antioxidative activity.

Aβ1–42 peptides = molecular target: T1, Aβ1–42 peptides (Homo sapiens, UniProt P05067); experiment: Thioflavin T (ThT) Aβ aggregation assay; type: biochemical; conditions: for Inhibition of Aβ aggregation compared with positive control morin: compounds at 100 μM, morin 100 μM; for IC50: isolated compounds, 6.25-100 µM, ThT fluorescence, read-out: Inhibition of Aβ aggregation IC50
T1 construct: purchased AnaSpec
T1 sequence (P05067 672-713 limits assumed): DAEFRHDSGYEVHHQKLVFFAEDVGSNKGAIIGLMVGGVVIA
Description: To measure the inhibitory effect on Aβ1–42 aggregation, the SensoLyte® Thioflavin T (ThT) β-Amyloid aggregation kit (AnaSpec, Fremont, CA, USA) was used according to the modified manufacturer’s instructions. This assay is based on the property of ThT dye that increases fluorescence when bound to the aggregates of Aβ1–42 peptides. The detailed protocol is described in a previous report. Morin (100 μM) was used as a positive control for the inhibition of Aβ aggregation. Experiments were performed in triplicate and independently repeated three times. The inhibition rate (%) of Aβ aggregation was calculated according to the following equation:(1) Inhibition of Aβ aggregation %=1−Fluorescence of Aβ−treated sample/Fluorescence of untreated sample×100

[2] = DPPH radical scavenging assay; conditions: for DPPH radical scavenging activity: concentrations from 1.5625 to 100 µM; for IC50: isolated compounds, 1.5625-100 µM
Description: ABTS and DPPH radical scavenging assays were performed with reference to the modified method described in previously published reports to examine the antioxidant activities. In the ABTS assay, 7 mM ABTS aqueous solution and 2.45 mM potassium persulfate were reacted for 12–16 h in the dark at room temperature to prepare the ABTS^•+ solution. Subsequently, the reactant was diluted 25-fold to adjust its absorbance at 734 nm to 0.7 by using a spectrophotometer (Benchmark Plus, Bio-Rad, Hercules, CA). The sample solution (100 μL) and ABTS^•+ solution (100 μL) were mixed and incubated for 5 min at room temperature in the dark.
To determine the DPPH radical scavenging activity, the sample solution (100 μL) and 0.15 mM DPPH solution (100 μL) were mixed and incubated for 3 h at room temperature in the dark. The absorbance was measured at 517 nm. Ascorbic acid was used as a positive control for antioxidative activity. The radical scavenging activity (%) was calculated using the following equation:(2) Radical scavenging activity %=1−Absorbance of sample/Absorbance of control × 100

SMILES	melting point [°C]	ABTS radical scavenging activity [1] [%]	Inhibition of Aβ aggregation compared with positive control morin (Aβ1–42 peptides)	IC50 (Aβ1–42 peptides) [µM]	Concentration at which ABTS radical scavenging activity reached 100% [1] [µM]	IC50 [1] [µM]	DPPH radical scavenging activity [2] [%]	IC50 [2] [µM]
C[C@@H]1CC[C@]2(C(=O)O)CC[C@]3(C)C(=CCC4[C@@]5(C)CC[C@H](OC(=O)/C=C/c6ccc(O)c(O)c6)C(C)(C)C5CC[C@]43C)C2[C@H]1C (stereo partly drawn) [Compound 15, ursolic acid-3-O-trans-caffeate]	> 300	< 66	–	–	–	–	–	–
Oc1cc(O)c2c(c1)O[C@H](c1ccc(O)c(O)c1)[C@@H](O)[C@@H]2c1c(O)cc(O)c2c1O[C@H](c1ccc(O)c(O)c1)[C@H](O)C2 [Compound 9, procyanidin B4]	–	–	comparably to morin	32.6	12.5	3.44	< 52	> 100
Oc1cc(O)c2c(c1)O[C@H](c1ccc(O)c(O)c1)[C@@H](O)[C@@H]2c1c(O)cc(O)c2c1O[C@H](c1ccc(O)c(O)c1)[C@@H](O)C2 [Compound 8, procyanidin B3]	–	–	comparably to morin	14.6	12.5	3.21	< 52	54.9
C=C(C)[C@@H]1CC[C@]2(C(=O)O)CC[C@]3(C)C(CCC4[C@@]5(C)CC[C@H](OC(=O)/C=C/c6ccc(O)c(O)c6)C(C)(C)C5CC[C@]43C)C12 (stereo partly drawn) [Compound 14, betulinic acid-3-O-trans-caffeate]	270	< 66	–	–	–	–	–	–
O=C(O)c1ccc(O)cc1 [Compound 1, 4-hydroxybenzoic acid]	–	< 66	–	–	–	–	–	–
O=C(O)c1ccccc1O [Compound 2, salicylic acid]	–	< 66	–	–	–	–	–	–
O=C(C=Cc1ccc(O)cc1)OCC1OC(Oc2c(-c3ccc(O)c(O)c3)oc3cc(O)cc(O)c3c2=O)C(O)C(O)C1O (stereo not drawn) [Compound 13, helichrysoside]	–	–	comparably to morin	44.5	25	4.61	< 52	> 100
